System: THF-containing double-stranded 17-mer oligodeoxynucleotide (DNA, mismatch bulge abasic, tetrahydrofuran (THF, abasic site analogue) at 6 of strand 1) TCACCNTCGTACGACTC/GAGTCGTACGACGGTGA
Assay: thiazole orange displacement, fluorescence
Conditions: 100 mM KCl, 20 mM Tris-HCl pH 7.4, 0.01% Tween-20, room temperature, 250 nM thiazole orange displaced, 50 nM DNA

apparent DNA binding constant [µM] | Compound
1.25 ± 0.32 | NCCNc1ccc(NCCN)c2c1C(=O)c1ccncc1C2=O
0.083 ± 0.003 | O=C1c2c(O)ccc(O)c2C(=O)c2c(NCCNCCO)ccc(NCCNCCO)c21

From paper PMC11193111 (2024)
